[invAb] = inverted abasic unit; m = 2'-O-methyl; r = 2'-OH (RNA); f = 2'-fluoro
These substances were tested on NGFβ mRNA (assay: NGFβ mRNA knock-down in Calu-1 cells (RNAiMax transfection, Taqman RT-PCR)). Settings: human Calu-1 cells, 10 nM siNA, 24 hrs post-transfection, relative to non-targeting control, normalized to GAPDH.
Assay type: cell-based, human
Method: Calu-1 (human; ATCC cat# HTB-54): Cells were cultured at 37° C. in the presence of 5% CO2 and grown in McCoy's 5a medium supplemented with fetal bovine serum at a final concentration of 10% and 100 μg/mL of streptomycin and 100 U/mL penicillin.
All transfections were performed using RNAiMax (Invitrogen Cat# 13778-150) as per the manufacturer's instructions.
Cells were plated in all wells of a tissue-culture treated, 96-well plate at a final count of 5,000 cells/well in […], of appropriate culture media. Cells were cultured for 24 hours after plating at 37° C. in the presence of 5% CO2.
After 24 hours, complexes containing siNA and RNAiMax were created as follows: A solution of RNAiMax diluted 33-fold in OPTI-MEM was prepared. In parallel, solutions of the siNAs for testing were prepared to a final concentration of 120 nM in OPTI-MEM. After incubation of RNAiMax/OPTI-MEM solution at room temperature for 5 min, an equal volume of the siRNA solution and the RNAiMax solution were added together for each of the siNAs.
This solution was incubated at room temperature for 20 minutes. After incubation, 20 uL of the solution was added to each of the relevant wells.
The final concentration of siNA in each well was 10 nM and the final volume of RNAiMax in each well was 0.3u1.
The time of incubation with the RNAiMax-siNA complexes was 24 hours, unless otherwise indicated. There was no change in media between the transfection and harvesting of the cells unless otherwise indicated.
Dose response curves were carried out in a similar fashion in 96-well plates, while maintaining a constant amount of RNAiMax in each transfection.
RNA was extracted from a 96-well plate using the TaqMan® Gene Expression Cells-to-CT™ Kit (Cat# 4399002) with a modified protocol. Briefly, a 60 uL (1 plate) or 110 uL (2 plates) of the Lysis Solution with DNase I was dispensed into each well of the Lysis Buffer Plate (twin.tec full skirt plate). The lysis buffer and stop plates were stored at 4° C. until the cells were washed.
The plate was spun at 1100 rpm for 5 minutes. The culture medium was aspirated and discarded from the wells of the culture plate. The lysis was performed automatically using a BioMek FX instrument and method. After the Biomek method was completed, the lysis plate was incubated for 2 min. at room temperature. The lysis plate can be stored for 2 hours at 4° C., or at −20° C. or −80° C. for two months.
Each well of the reverse transcription plate required 10 uL of 2× reverse transcriptase Buffer, luL of 20× reverse transcription enzyme and 2 uL of nuclease-free water. The reverse transcription master mix was prepared by mixing 2× reverse transcription buffer, 20× reverse transcription enzyme mix, and nuclease-free water. 13 uL of the reverse transcription master mix was dispensed into each well of the reverse transcription plate (semi-skirted). A separate reverse transcription plate was prepared for each cell plate. The plate was loaded onto a Biomek NX or Biomek FX Dual-96 and the Biomek method was run. The program is programmed to automatically added 7 uL of lysate from the cell lysis procedure described above into each well of the reverse transcription plate. The plate is sealed and spun on a centrifuge (1000 rpm for 30 seconds) to settle the contents to the bottom of the reverse transcription plate. The plate is placed in a thermocycler at 37° C. for 60 min, 95° C. for 5 min, and 4° C. until the plate is removed from the thermocycler. Upon removal, if not used immediately, the plate was frozen at −20° C.
A series of probes and primers were used to detect the various mRNA transcripts of the genes of NGFβ, BDNF and GAPDH in human cell lines. All the Taqman probes and primers for the experiments here-in described were supplied as pre-validated sets by Applied Biosystems, Inc. (see Table 3). The assays were performed on an ABI 7900 instrument, according to the manufacturer's instructions. […]

Substance	% KD in CaLu-1 Cells
25418-DC: siNA duplex, NGFβ target site 650; sense B GGAGAGGuGAAcAuuAAcA TTB (SEQ ID NO: 61), antisense UGUuAAuGuucAccucuccUU (SEQ ID NO: 62) (sense GGAGAGGUGAACAUUAACATT; antisense UGUUAAUGUUCACCUCUCCUU; sense: DNA at AGT, 2'-fluoro at CU, [invAb] at 5' end, 3' end, backbone not given here; antisense: sugars from the 5' end rrrfmmfmfffmfffffffmm, backbone not given here)	26%
25420-DC: siNA duplex, NGFβ target site 510; sense B AcAGGAcucAcAGGAGcAA TTB (SEQ ID NO: 65), antisense UUGcuccuGuGAGuccuGuUU (SEQ ID NO: 66) (sense ACAGGACUCACAGGAGCAATT; antisense UUGCUCCUGUGAGUCCUGUUU; sense: DNA at AGT, 2'-fluoro at CU, [invAb] at 5' end, 3' end, backbone not given here; antisense: sugars from the 5' end rrrfffffmfmmmffffmfmm, backbone not given here)	44%
25404-DC: siNA duplex, NGFβ target site 43; sense B cAGuGGucGuGcAGuccAA TTB (SEQ ID NO: 33), antisense UUGGAcuGcAcGAccAcuGUU (SEQ ID NO: 34) (sense CAGUGGUCGUGCAGUCCAATT; antisense UUGGACUGCACGACCACUGUU; sense: DNA at AGT, 2'-fluoro at CU, [invAb] at 5' end, 3' end, backbone not given here; antisense: sugars from the 5' end rrrmmffmfmfmmffmffmmm, backbone not given here)	33%
25412-DC: siNA duplex, NGFβ target site 267; sense B cccAAGcccAcuGGAcuAA TTB (SEQ ID NO: 49), antisense UUAGuccAGuGGGcuuGGGUU (SEQ ID NO: 50) (sense CCCAAGCCCACUGGACUAATT; antisense UUAGUCCAGUGGGCUUGGGUU; sense: DNA at AGT, 2'-fluoro at CU, [invAb] at 5' end, 3' end, backbone not given here; antisense: sugars from the 5' end rrrmfffmmfmmmfffmmmmm, backbone not given here)	−3%
25402-DC: siNA duplex, NGFβ target site 651; sense B GAGAGGuGAAcAuuAAcAA TTB (SEQ ID NO: 29), antisense UUGuuAAuGuucAccucucUU (SEQ ID NO: 30) (sense GAGAGGUGAACAUUAACAATT; antisense UUGUUAAUGUUCACCUCUCUU; sense: DNA at AGT, 2'-fluoro at CU, [invAb] at 5' end, 3' end, backbone not given here; antisense: sugars from the 5' end rrrffmmfmfffmffffffmm, backbone not given here)	53%
25427-DC: siNA duplex, NGFβ target site 516; sense B cucAcAGGAGcAAGcGGuc TTB (SEQ ID NO: 79), antisense GACcGcuuGcuccuGuGAGUU (SEQ ID NO: 80) (sense CUCACAGGAGCAAGCGGUCTT; antisense GACCGCUUGCUCCUGUGAGUU; sense: DNA at AGT, 2'-fluoro at CU, [invAb] at 5' end, 3' end, backbone not given here; antisense: sugars from the 5' end rrrfmfffmfffffmfmmmmm, backbone not given here)	6%
25415-DC: siNA duplex, NGFβ target site 609; sense B ccAccGccAcAGAcAucAA TTB (SEQ ID NO: 55), antisense UUGAuGucuGuGGcGGuGGUU (SEQ ID NO: 56) (sense CCACCGCCACAGACAUCAATT; antisense UUGAUGUCUGUGGCGGUGGUU; sense: DNA at AGT, 2'-fluoro at CU, [invAb] at 5' end, 3' end, backbone not given here; antisense: sugars from the 5' end rrrmfmfffmfmmfmmfmmmm, backbone not given here)	61%
25407-DC: siNA duplex, NGFβ target site 518; sense B cAcAGGAGcAAGcGGucAu TTB (SEQ ID NO: 39), antisense AUGAccGcuuGcuccuGuGUU (SEQ ID NO: 40) (sense CACAGGAGCAAGCGGUCAUTT; antisense AUGACCGCUUGCUCCUGUGUU; sense: DNA at AGT, 2'-fluoro at CU, [invAb] at 5' end, 3' end, backbone not given here; antisense: sugars from the 5' end rrrmffmfffmfffffmfmmm, backbone not given here)	47%
25403-DC: siNA duplex, NGFβ target site 958; sense B ccuGuAAAuuAuuuuAAAu TTB (SEQ ID NO: 31), antisense AUUuAAAAuAAuuuAcAGGUU (SEQ ID NO: 32) (sense CCUGUAAAUUAUUUUAAAUTT; antisense AUUUAAAAUAAUUUACAGGUU; sense: DNA at AGT, 2'-fluoro at CU, [invAb] at 5' end, 3' end, backbone not given here; antisense: sugars from the 5' end rrrfmmmmfmmfffmfmmmmm, backbone not given here)	60%
25406-DC: siNA duplex, NGFβ target site 755; sense B cAcuGGAAcucAuAuuGuA TTB (SEQ ID NO: 37), antisense UACAAuAuGAGuuccAGuGUU (SEQ ID NO: 38) (sense CACUGGAACUCAUAUUGUATT; antisense UACAAUAUGAGUUCCAGUGUU; sense: DNA at AGT, 2'-fluoro at CU, [invAb] at 5' end, 3' end, backbone not given here; antisense: sugars from the 5' end rrrmmfmfmmmffffmmfmmm, backbone not given here)	34%
25411-DC: siNA duplex, NGFβ target site 101; sense B uccGGAcccAAuAAcAGuu TTB (SEQ ID NO: 47), antisense AACuGuuAuuGGGuccGGAUU (SEQ ID NO: 48) (sense UCCGGACCCAAUAACAGUUTT; antisense AACUGUUAUUGGGUCCGGAUU; sense: DNA at AGT, 2'-fluoro at CU, [invAb] at 5' end, 3' end, backbone not given here; antisense: sugars from the 5' end rrrfmffmffmmmfffmmmmm, backbone not given here)	54%
25429-DC: siNA duplex, NGFβ target site 469; sense B ucAGGAucuGGAcuucGAG TTB (SEQ ID NO: 83), antisense CUCGAAGuccAGAuccuGAUU (SEQ ID NO: 84) (sense UCAGGAUCUGGACUUCGAGTT; antisense CUCGAAGUCCAGAUCCUGAUU; sense: DNA at AGT, 2'-fluoro at CU, [invAb] at 5' end, 3' end, backbone not given here; antisense: sugars from the 5' end rrrmmmmfffmmmffffmmmm, backbone not given here)	1%

From patent US20120004281A1, “RNA Interference Mediated Inhibition of the Nerve Growth Factor Beta Chain (NGFB) Gene Expression Using Short Interfering Nucleic Acid (siNA)” (Merck Sharp & Dohme Corp, priority 2009, published 2012)
